From patent US7705009B2, “4-aminopyrimidine-5-thione derivatives” (Hoffman-La Roche Inc., priority 2005, dated 2010)
Read-outs that look alike come from different tables or passages of the source.

Legend:
human cyclin B-CDK1 = human cyclin B-CDK1 (Homo sapiens, UniProt P06493); test: CDK1 HTRF kinase assay (Ki measurement); type: biochemical; details: ATP at 3x Km
Procedure: (§1) To determine inhibition of Cdk4, Cdk2 and Cdk1 activity, kinase assays were conducted using FlashPlate™ assays (NEN™-Life Science Products). FlashPlate assays were performed using recombinant human cyclin B-CDK1, human cyclin E-CDK2 or human cyclin D1-CDK4 complexes. GST-cyclinE (GST-cycE), CDK2, GST-cyclinB (GST-cycB), CDK1, GST-CDK4 and cyclin D1 (cycD1) cDNA clones in baculovirus vectors were provided by Dr. W. Harper at the Baylor College of Medicine, Houston, Tex.
(§2) Alternatively, inhibition activity may be measured using Ki. […] These were done in 96-well format and read in 384-well plate format. The assays were run at 3× their respective Kms for ATP.
Twenty microliters were added to the wells of a 96-well plate. […] Blank wells without CDK4 were included. The plates were incubated at 37° C. for 30 minutes with shaking. […] After 30 minutes at 37° C., 15 μl/well of 3 nM Lance-Eu-W1024 labeled anti-rabbit IgG and 60 nM Allophycocyanin conjugated anti-His6 (PerkinElmer Life Sciences) in 25 mM Hepes, pH 7.0, 0.5 mg/ml BSA were added. Following a one hour incubation at 37 deg C., 35 μl of each well, in duplicate, were transferred to 384-well black plates. The plates were read using either ViewLux or Victor V readers (PerkinElmer Life Sciences) using an excitation wavelength of 340 nm and dual emission wavelengths of 615 nm and 665 nm. […] For ATP competitive inhibitors, the Ki values were calculated according to the following equation: Ki=IC50/(1+S/Km) where S refers to the substrate concentration and Km refers to the Michaelis-Menten constant.
(§3) The CDK1 and CDK2 assays were similarly run except for small differences in reagent and protein concentrations:
The compound and enzyme buffers for both assays contained 10 mM MgCl2. […] CDK1 at a reagent concentration of 0.15 ng/ul and CDK2 at a reagent concentration of 0.06 ng/ul were used.

human cyclin E-CDK2 = human cyclin E-CDK2 (Homo sapiens, UniProt P24941); test: CDK2 HTRF kinase assay (Ki measurement); type: biochemical
Procedure: as §1, §2
Twenty microliters were added to the wells of a 96-well plate. […] Blank wells without CDK4 were included. The plates were incubated at 37° C. for 30 minutes with shaking. […] After 30 minutes at 37° C., 15 μl/well of 3 nM Lance-Eu-W1024 labeled anti-rabbit IgG and 60 nM Allophycocyanin conjugated anti-His6 (PerkinElmer Life Sciences) in 25 mM Hepes, pH 7.0, 0.5 mg/ml BSA were added. Following a one hour incubation at 37 deg C., 35 μl of each well, in duplicate, were transferred to 384-well black plates. The plates were read using either ViewLux or Victor V readers (PerkinElmer Life Sciences) using an excitation wavelength of 340 nm and dual emission wavelengths of 615 nm and 665 nm.
as §3
The compound and enzyme buffers for both assays contained 10 mM MgCl2.

human cyclin D1-CDK4 = human cyclin D1-CDK4 (Homo sapiens, UniProt P11802); test: CDK4 HTRF kinase assay (Ki measurement); type: biochemical; details: ATP at 3x Km
Procedure: To determine inhibition of Cdk4, Cdk2 and Cdk1 activity, kinase assays were conducted using FlashPlateTM assays (NENTM-Life Science Products). […] W. Harper at the Baylor College of Medicine, Houston, Tex. Proteins were co-expressed in High FiveTM insect cells and the complex was purified on glutathione Sepharose resin (Pharmacia, Piscataway, N.J.) as previously described (Harper, J. W. et al. Cell 1993, 75, 805-816). A 6×-Histidine tagged […]) was used as the substrate for the cycD1-CDK4, cycB-CDK1 and the cycE-CDK2 assays (the expression plasmid was provided by Dr. Veronica Sullivan, Department of Molecular Virology, Roche Research Centre, Welwyn Garden City, United Kingdom). The Rb protein is a natural substrate for phosphorylation by CDK4, CDK2 and CDK1 (see Herwig and Strauss Eur. J. Biochem. Vol. 246 (1997) pp. 581-601 and the references cited therein). Alternatively, inhibition activity may be measured using Ki. Using the protein constructs described above in Example 19A above, CDK1, CDK2, and CDK4 HTRF assays were set up. These were done in 96-well format and read in 384-well plate format. The assays were run at 3× their respective Kms for ATP. In the CDK4 assay, test compounds were diluted to 3× their final concentrations in 25 mM Hepes, pH 7.0, 6.25 mM MgCl2, 1.5 mM DTT, 135 μM ATP. The DMSO concentration was no greater than 4.76%. Twenty microliters were added to the wells of a 96-well plate. The kinase reaction was initiated by the addition of 40 μl/well of a solution containing 0.185 μM Rb and 2.25 μg/ml CDK4 in 25 mM Hepes, pH 7.0, 6.25 mM MgCl2, 0.003% Tween-20, 0.3 mg/ml BSA, 1.5 mM DTT. Blank wells without CDK4 were included. The plates were incubated at 37° C. for 30 minutes with shaking. The kinase reaction was terminated by the addition of 15 μl/well of 1.6 uM anti-phospho-Rb ([…]) antibody (Cell Signaling Inc.) in 25 mM Hepes, pH 7.0, 24 mM EDTA, 0.2 mg/ml BSA. After 30 minutes at 37° C., 15 μl/well of 3 nM Lance-Eu-W1024 labeled anti-rabbit IgG and 60 nM Allophycocyanin conjugated anti-His6 (PerkinElmer Life Sciences) in 25 mM Hepes, pH 7.0, 0.5 mg/ml BSA were added. Following a one hour incubation at 37 deg C., 35 μl of each well, in duplicate, were transferred to 384-well black plates. The plates were read using either ViewLux or Victor V readers (PerkinElmer Life Sciences) using an excitation wavelength of 340 nm and dual emission wavelengths of 615 nm and 665 nm. IC50 values (the concentration of test compounds reducing the assay control fluorescence read-out by 50%) were first calculated from net readings at 665 nm, normalized for europium readings at 615 nm. For ATP competitive inhibitors, the Ki values were calculated according to the following equation: […]

[1] = test system: HCT116 colorectal carcinoma cell line; test: Tetrazolium dye proliferation assay (MTT assay); type: cell-based; details: Homo sapiens, HCT-116, HCT116 cells
Procedure: Proliferation was evaluated by the tetrazolium dye assay according to the procedure of Denizot and Lang (Denizot, F. and Lang, R. J Immunol Methods 1986, 89, 271-277). The cell line used was HCT116, a colorectal carcinoma cell line obtained from the American Type Cell Culture Collection (ATCC; Rockville, Md.). The cells were grown in McCoy's 5A medium supplemented with 10% FCS and L-glutamine.
Cells were plated at the appropriate seeding density to give logarithmic growth over the course of the assay in a 96-well tissue culture plate. Plates were incubated overnight at 37° C. in a humidified incubator with 5% CO2. The next day, test compounds were serially diluted to four times the final concentration in the appropriate medium containing 1.2% DMSO. One-fourth final volume of each dilution was added in duplicate to the plates containing cells. The same volume of 1.2% DMSO in medium was added to a row of “control wells” such that the final concentration of DMSO in each well was 0.3%. Wells to which no cells were added served as the “blank.” Wells to which no inhibitor was added served as “no inhibitor control.” The plates were) returned to the incubator, and at set time points (determined by their growth curves) plates were analyzed as described below.
3-(4,5-dimethylthiazole-2-yl)-2,5-diphenyl-2H-tetrazolium bromide (thiazolyl blue; MTT; Sigma) was added to each well to yield a final concentration of 1 mg/ml. Plates were returned to the incubator for 2.5-3 hours at 37° C. The MTT-containing medium was removed and the resulting formazan metabolite was solubilized in 100% ethanol with shaking for 15 minutes at room temperature. Absorbance readings were taken in a microtiter plate reader (Dynatech and Molecular Devices plate readers were used interchangeably) at a wavelength of 570 nm with a 650 nm reference. Percent inhibition (% INH) is calculated by subtracting the absorbance of the blank well from all wells, then subtracting the ratio of the average absorbance of each test duplicate (SAVE) by the average of the controls (CAVE) from 1.00. The final number is then multiplied by 100 (% INH=(1.00−SAVE/CAVE)×100). The concentration at which 50% inhibition of cell proliferation is obtained (the IC50) is determined from the linear regression of a plot of the logarithm of the concentration versus percent inhibition.

[2] = HTRF assay, ATP at 3x Km, read-out: Ki CDK2

Sequence of human cyclin B-CDK1 (P06493 whole entry): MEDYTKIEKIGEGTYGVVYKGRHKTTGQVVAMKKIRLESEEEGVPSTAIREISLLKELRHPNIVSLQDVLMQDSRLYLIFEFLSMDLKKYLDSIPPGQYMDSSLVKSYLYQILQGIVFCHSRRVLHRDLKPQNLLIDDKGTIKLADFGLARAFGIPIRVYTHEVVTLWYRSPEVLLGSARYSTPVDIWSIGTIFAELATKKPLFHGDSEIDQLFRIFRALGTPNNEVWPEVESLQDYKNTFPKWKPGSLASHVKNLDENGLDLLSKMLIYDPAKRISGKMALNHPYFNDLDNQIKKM
Sequence of human cyclin B-CDK1 (P14635 whole entry partner): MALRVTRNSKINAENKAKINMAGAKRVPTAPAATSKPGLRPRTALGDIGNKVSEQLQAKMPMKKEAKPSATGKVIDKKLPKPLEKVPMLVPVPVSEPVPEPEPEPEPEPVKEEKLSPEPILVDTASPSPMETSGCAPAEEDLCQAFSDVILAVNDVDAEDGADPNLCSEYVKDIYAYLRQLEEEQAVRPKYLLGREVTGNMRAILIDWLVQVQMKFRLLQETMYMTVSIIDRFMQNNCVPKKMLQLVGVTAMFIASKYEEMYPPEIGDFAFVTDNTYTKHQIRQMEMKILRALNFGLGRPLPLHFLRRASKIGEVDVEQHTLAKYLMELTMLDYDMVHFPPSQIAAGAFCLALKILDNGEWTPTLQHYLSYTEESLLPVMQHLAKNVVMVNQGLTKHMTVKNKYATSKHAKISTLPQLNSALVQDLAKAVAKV
Sequence of human cyclin D1-CDK4 (P11802 whole entry): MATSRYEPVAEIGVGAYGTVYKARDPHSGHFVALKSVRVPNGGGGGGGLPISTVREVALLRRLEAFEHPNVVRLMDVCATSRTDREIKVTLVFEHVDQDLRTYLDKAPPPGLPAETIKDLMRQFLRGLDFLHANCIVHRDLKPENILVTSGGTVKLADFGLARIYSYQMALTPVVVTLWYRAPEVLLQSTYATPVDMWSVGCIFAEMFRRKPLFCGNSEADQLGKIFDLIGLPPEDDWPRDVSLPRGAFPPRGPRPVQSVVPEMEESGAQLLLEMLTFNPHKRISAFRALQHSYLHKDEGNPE
Sequence of human cyclin D1-CDK4 (P24385 whole entry partner): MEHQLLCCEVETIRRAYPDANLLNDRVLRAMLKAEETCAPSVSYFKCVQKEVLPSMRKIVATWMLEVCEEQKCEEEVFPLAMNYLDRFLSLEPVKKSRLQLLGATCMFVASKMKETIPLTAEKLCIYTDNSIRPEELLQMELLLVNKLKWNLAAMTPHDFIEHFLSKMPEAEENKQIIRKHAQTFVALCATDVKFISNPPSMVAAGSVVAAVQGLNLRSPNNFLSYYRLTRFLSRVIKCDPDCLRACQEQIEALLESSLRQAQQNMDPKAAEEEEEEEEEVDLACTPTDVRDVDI

COc1ccc(F)c(F)c1C(=S)c1cnc(Nc2ccc(S(N)(=O)=O)cc2)nc1N [Example 14, 4-[4-Amino-5-(2,3-difluoro-6-methoxy-thiobenzoyl)-pyrimidin-2-ylamino]-benzenesulfonamide]
Ki (human cyclin B-CDK1): 3 nM | Ki (human cyclin E-CDK2; [2]): 1 nM | Ki (human cyclin D1-CDK4): 3 nM | IC50 [1]: 32 nM

CS(=O)(=O)N1CCC(Nc2ncc(C(=S)c3c(F)cccc3F)c(N)n2)CC1 [Example 15, [4-Amino-2-(1-methanesulfonyl-piperidin-4-ylamino)-pyrimidin-5-yl]-(2,6-difluoro-phenyl)-methanethione]
Ki (human cyclin B-CDK1): 3 nM | Ki (human cyclin E-CDK2): 1 nM | Ki (human cyclin D1-CDK4): 1 nM | IC50 [1]: 171 nM

CS(=O)(=O)N1CCC(Nc2ncc(C(=S)c3c(F)c(F)cc4ccoc34)c(N)n2)CC1 [Example 6, [4-Amino-2-(1-methanesulfonyl-piperidin-4-ylamino)-pyrimidin-5-yl]-(5,6-difluoro-benzofuran-7-yl)-methanethione]
Ki (human cyclin B-CDK1): 3 nM | Ki (human cyclin E-CDK2; [2]): 0.1 nM | Ki (human cyclin D1-CDK4): 0.26 nM | IC50 [1]: 13 nM

COc1ccc(F)c(F)c1C(=S)c1cnc(N[C@H]2CC[C@H](NS(C)(=O)=O)CC2)nc1N [Example 2, N-{4-[4-Amino-5-(2,3-difluoro-6-methoxy-thiobenzoyl)-pyrimidin-2-ylamino]-cyclohexyl}methanesulfonamide]
Ki (human cyclin B-CDK1): 0.27 nM | Ki (human cyclin E-CDK2; [2]): 0.18 nM | Ki (human cyclin D1-CDK4): 0.6 nM | IC50 [1]: 12 nM

CS(=O)(=O)N1CCC(Nc2ncc(C(=S)c3c(Cl)ccc(F)c3F)c(N)n2)CC1 [Example 13, [4-Amino-2-(1-methanesulfonyl-piperidin-4-ylamino)-pyrimidin-5-yl]-(6-chloro-2,3-difluoro-phenyl)-methanethione]
Ki (human cyclin B-CDK1): 3 nM | Ki (human cyclin E-CDK2; [2]): 1 nM | Ki (human cyclin D1-CDK4): 3 nM | IC50 [1]: 176 nM
